# Legend:
# human EP4 receptor [1] = biological target: T1, human EP4 receptor (Homo sapiens, UniProt P35408); experiment: Human EP4 receptor radioligand binding assay (Test 1); design: expressed in transfected cells; host or cells: HEK-293 cell membranes; settings: [3H]-PGE2 1 nM, transfected HEK-293 cell membranes; for Results of Test 1 (Binding assay, % inh): at 10 μM; for inhibition at 10 µM: read-out: Results of Test 1 (Binding assay, % inh)
# Protocol: Test 1: Human EP4 Receptor Radioligand Binding Assay
# To investigate binding properties of EP4 receptor ligands to human EP4 receptor, transfected HEK-293 cell membranes and [3H]-PGE2 (Perkin Elmer) were used. In 96-well plates the assay was carried out with a total reaction volume of 250 μl, containing 25 μl of membrane suspension (30 μg protein/well), 25 μl of [3H]-PGE2 (1 nM) in either absence or presence of 25 μl of either buffer or PGE2 (10 μM) for total and non-specific binding, respectively. Binding buffer contained 25 mM MES, 10 mM MgCl2 and 1 mM EDTA at pH 6.0. Plates were incubated at 25° C. for 120 minutes. After the incubation period, 200 μl of incubate were transferred to MultiScreen HTS, FB plates (Millipore), filtered and plates were washed 6 times with ice-cold 10 mM MES, 0.01% BSA at pH 6.0. Filters were dried and counted in a MicroBeta scintillation counter (Perkin-Elmer) using EcoScint liquid scintillation cocktail.
# Percentage inhibition was calculated relating compounds activity to the 0% inhibition of the wells incubated with 1 nM [3H]-PGE2 alone (total binding) and 100% inhibition of the wells incubated with 1 nM [3H]-PGE2 plus 10 μM PGE2 (non-specific binding).
# human EP4 receptor [2] = biological target: T1, human EP4 receptor; experiment: Measurement of cAMP responses by Homogeneous Time Resolved Fluorescence (Test 2); assay type: cell-based; design: expressed in transfected cells; settings: for Results of Test 2 (Functional assay, antagonist % inh): at 10 μM, PGE2 1 nM, HEK-293 cells stably expressing human EP4; for inhibition at 10 µM: HEK293, PGE2 1 nM, HEK-293 cells stably expressing human EP4, read-out: Results of Test 2 (Functional assay, antagonist % inh)
# Protocol: Test 2: Measurement of cAMP Responses by Homogeneous Time Resolved Fluorescence
# cAMP measurements on HEK-293 cells that stably expressed human EP4 receptors were performed by using a system based on Homogeneous Time Resolved Fluorescense (HTRF). This technology allows the direct measurement of cAMP in living cells. The principle of this assay is based on competition between cAMP produced by cells and cAMP-d2 conjugate for the binding with monoclonal anti-cAMP-cryptate conjugate. The HTRF cAMP kit from CisBio was used according to the manufacturer's directions. The experimental procedure was performed as stated below.
# Suspended cells (30,000 cells per well) were added to 96-well culture plates in 30 μl of Optimem supplemented with 500 μM IBMX. Compounds were then added in 10 μl of stimulation buffer and incubated at 25° C. for 30 minutes followed by 10 μl of PGE2 to a final concentration of 1 nM. After 30 minutes at 25° C., the reaction was stopped lysing the cells with a mixture of 25 μl of cryptate and 25 μl of cAMP-d2 prepared in the lysis buffer supplied by the manufacturer. Plates were incubated for an additional hour at room temperature and read at 665 nm/620 nm using an UltraEvolution Plate reader (Tecan).
# Antagonist percentage inhibition was calculated relating compounds activity to the 0% inhibition of the wells incubated with 1 nM PGE2 alone and 100% inhibition of the wells incubated with 1 nM PGE2 plus 1 μM of the reference antagonist.
# T1 sequence (P35408 whole entry): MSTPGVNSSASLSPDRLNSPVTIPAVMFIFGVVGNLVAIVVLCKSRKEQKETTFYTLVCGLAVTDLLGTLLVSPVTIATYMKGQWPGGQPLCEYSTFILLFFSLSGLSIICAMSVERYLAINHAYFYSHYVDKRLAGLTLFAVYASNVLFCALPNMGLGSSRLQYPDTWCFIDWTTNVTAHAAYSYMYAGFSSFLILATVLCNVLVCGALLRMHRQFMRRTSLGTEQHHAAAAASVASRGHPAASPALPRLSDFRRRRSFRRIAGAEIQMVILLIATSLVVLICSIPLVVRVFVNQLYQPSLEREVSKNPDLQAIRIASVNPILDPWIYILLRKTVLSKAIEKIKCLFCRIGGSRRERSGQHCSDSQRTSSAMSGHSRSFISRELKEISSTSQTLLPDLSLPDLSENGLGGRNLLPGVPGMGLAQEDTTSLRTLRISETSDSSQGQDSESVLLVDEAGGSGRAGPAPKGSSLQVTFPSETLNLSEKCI
"Results of Test 1 (Binding assay, % inh) (human EP4 receptor [1])","Results of Test 2 (Functional assay, antagonist % inh) (human EP4 receptor [2])",inhibition at 10 µM (human EP4 receptor [1]) [%],inhibition at 10 µM (human EP4 receptor [2]) [%],SMILES
# (% inh >75),$ (% inh >75),–,–,"Cc1ccc(-c2cccc(CO)c2)cc1C(=O)Nc1c(C)cc(C(=O)O)cc1C [Example 9, 4-(3′-(Hydroxymethyl)-4-methylbiphenyl-3-ylcarboxamido)-3,5-dimethylbenzoic acid]"
# (% inh >75),$ (% inh >75),–,–,"Cc1ccc(-c2cc(Cl)ccc2F)cc1C(=O)Nc1c(C)cc(C(=O)O)cc1C [Example 10, 4-(5′-Chloro-2′-fluoro-4-methylbiphenyl-3-ylcarboxamido)-3,5-dimethylbenzoic acid]"
# (% inh >75),$ (% inh >75),–,–,"Cc1ccc(-c2cc(F)ccc2F)cc1C(=O)Nc1c(C)cc(C(=O)O)cc1C [Example 11, 4-(2′,5′-Difluoro-4-methylbiphenyl-3-ylcarboxamido)-3,5-dimethylbenzoic acid]"
# (% inh >75),$ (% inh >75),–,–,"COc1ccc(F)c(-c2ccc(C)c(C(=O)Nc3c(C)cc(C(=O)O)cc3C)c2)c1 [Example 12, 4-(2′-fluoro-5′-methoxy-4-methylbiphenyl-3-ylcarboxamido)-3,5-dimethylbenzoic acid]"
# (% inh >75),$ (% inh >75),–,–,"Cc1ccc(-c2cccc(C(N)=O)c2)cc1C(=O)Nc1c(C)cc(C(=O)O)cc1C [Example 13, 4-(3′-Carbamoyl-4-methylbiphenyl-3-ylcarboxamido)-3,5-dimethylbenzoic acid]"
# (% inh >75),$ (% inh >75),–,–,"Cc1cc(C(=O)O)cc(C)c1NC(=O)c1cc(-c2cccc(Cl)c2)ccc1Cl [Example 14, 4-(3′,4-Dichlorobiphenyl-3-ylcarboxamido)-3,5-dimethylbenzoic acid]"
# (% inh >75),$ (% inh >75),–,–,"Cc1ccc(-c2cccc(Cl)c2)cc1C(=O)Nc1c(C)cc(C(=O)O)cc1C [Example 20, 4-(3′-Chloro-4-methylbiphenyl-3-ylcarboxamido)-3,5-dimethylbenzoic acid]"
# (% inh >75),$ (% inh >75),–,–,"Cc1cc(C(=O)O)ccc1NC(=O)c1cc(-c2cccc(Cl)c2)ccc1Cl [Example 21, 4-(3′,4-Dichlorobiphenyl-3-ylcarboxamido)-3-methylbenzoic acid]"
# (% inh >75),$ (% inh >75),–,–,"Cc1cc(C(=O)O)cc(Cl)c1NC(=O)c1cc(-c2cccc(Cl)c2)ccc1Cl [Example 22, 3-Chloro-4-(3′,4-dichlorobiphenyl-3-ylcarboxamido)-5-methylbenzoic acid]"
–,–,> 75,> 75,"Cc1cc(C(=O)O)cc(C)c1NC(=O)c1nc(-c2cccc(Cl)c2)ccc1Cl [Example 23, 4-(3-Chloro-6-(3-chlorophenyl)picolinamido)-3,5-dimethylbenzoic acid]"
–,–,> 75,> 75,"O=C(O)c1cc(Cl)c(NC(=O)c2cc(OCc3ccc(F)cc3F)ccc2Cl)c(Cl)c1 [Example 35, 3,5-Dichloro-4-(2-chloro-5-(2,4-difluorobenzyloxy)benzamido)benzoic acid]"
–,–,> 75,> 75,"O=C(O)c1cc(Cl)c(NC(=O)c2cc(OCc3ccc(Cl)cc3F)ccc2Cl)c(Cl)c1 [Example 36, 3,5-Dichloro-4-(2-chloro-5-(4-chloro-2-fluorobenzyloxy)benzamido)benzoic acid]"
# (% inh >75),$ (% inh >75),–,–,"Cc1ccc(C(=O)O)cc1NC(=O)c1cc(-c2cccc(Cl)c2)ccc1C [Example 38, 3-(3′-Chloro-4-methylbiphenyl-3-ylcarboxamido)-4-methylbenzoic acid]"
–,–,> 75,> 75,"Cc1ccc(C(=O)O)cc1NC(=O)c1nc(-c2cccc(Cl)c2)ccc1Cl [Example 42, 3-(3-Chloro-6-(3-chlorophenyl)picolinamido)-4-methylbenzoic acid]"

# Continued, compound first:
SMILES,"Results of Test 1 (Binding assay, % inh) (human EP4 receptor [1])","Results of Test 2 (Functional assay, antagonist % inh) (human EP4 receptor [2])",inhibition at 10 µM (human EP4 receptor [1]) [%],inhibition at 10 µM (human EP4 receptor [2]) [%]
"Cc1ccc(-c2cccc(F)c2)cc1C(=O)Nc1c(C)cc(C(=O)O)cc1C [Example 4, 4-(3′-Fluoro-4-methylbiphenyl-3-ylcarboxamido)-3,5-dimethylbenzoic acid]",# (% inh >75),$ (% inh >75),–,–
"Cc1ccc(-c2cccc(C#N)c2)cc1C(=O)Nc1c(C)cc(C(=O)O)cc1C [Example 5, 4-(3′-Cyano-4-methylbiphenyl-3-ylcarboxamido)-3,5-dimethylbenzoic acid]",# (% inh >75),$ (% inh >75),–,–
"Cc1ccc(-c2cccc(CO)c2)cc1C(=O)Nc1c(Cl)cc(C(=O)O)cc1Cl [Example 6, 3,5-Dichloro-4-(3′-(hydroxymethyl)-4-methylbiphenyl-3-ylcarboxamido)benzoic acid]",# (% inh >75),$ (% inh >75),–,–
"Cc1ccc(-c2cccc(C#N)c2)cc1C(=O)Nc1c(Cl)cc(C(=O)O)cc1Cl [Example 7, 3,5-Dichloro-4-(3′-cyano-4-methylbiphenyl-3-ylcarboxamido)benzoic acid]",# (% inh >75),$ (% inh >75),–,–
"COc1cccc(-c2ccc(C)c(C(=O)Nc3c(Cl)cc(C(=O)O)cc3Cl)c2)c1 [Example 8, 3,5-Dichloro-4-(3′-methoxy-4-methylbiphenyl-3-ylcarboxamido)benzoic acid]",# (% inh >75),$ (% inh >75),–,–
"Cc1ccc(-c2cccc(Cl)c2)cc1C(=O)Nc1c(Cl)cc(C(=O)O)cc1Cl [Example 15, 3,5-Dichloro-4-(3′-chloro-4-methylbiphenyl-3-ylcarboxamido)benzoic acid]",# (% inh >75),$ (% inh >75),–,–
"O=C(O)c1cc(Cl)c(NC(=O)c2cc(-c3cccc(CO)c3)ccc2Cl)c(Cl)c1 [Example 16, 3,5-Dichloro-4-(4-chloro-3′-(hydroxymethyl)biphenyl-3-ylcarboxamido)benzoic acid]",# (% inh >75),$ (% inh >75),–,–
"COc1cccc(-c2ccc(Cl)c(C(=O)Nc3c(Cl)cc(C(=O)O)cc3Cl)c2)c1 [Example 17, 3,5-Dichloro-4-(4-chloro-3′-methoxybiphenyl-3-ylcarboxamido)benzoic acid]",# (% inh >75),$ (% inh >75),–,–
"N#Cc1cccc(-c2ccc(Cl)c(C(=O)Nc3c(Cl)cc(C(=O)O)cc3Cl)c2)c1 [Example 18, 3,5-Dichloro-4-(4-chloro-3′-cyanobiphenyl-3-ylcarboxamido)benzoic acid]",# (% inh >75),$ (% inh >75),–,–
"O=C(O)c1cc(Cl)c(NC(=O)c2cc(-c3cccc(Cl)c3)ccc2Cl)c(Cl)c1 [Example 19, 3,5-Dichloro-4-(3′,4-dichlorobiphenyl-3-ylcarboxamido)benzoic acid]",# (% inh >75),$ (% inh >75),–,–
"Cc1cc(C(=O)O)cc(C)c1NC(=O)c1cc(OCC(C)C)ccc1Cl [Example 24, 4-(2-Chloro-5-isobutoxybenzamido)-3,5-dimethylbenzoic acid]",–,–,> 75,> 75
"CC(C)COc1ccc(Cl)c(C(=O)Nc2c(Cl)cc(C(=O)O)cc2Cl)c1 [Example 25, 3,5-Dichloro-4-(2-chloro-5-isobutoxybenzamido)benzoic acid]",–,–,> 75,> 75

# — patent US9926276B2, “Substituted benzamides with activity towards EP4 receptors” (DRACONIS PHARMA, S.L., priority 2013, dated 2018)
